Laboratory results as given in US12599614B2, “Methods and pharmaceutical compositions for the treatment and prophylaxis of microbial infectious diseases and associated inflammatory disorders and for the treatment and prophylaxis of aging and associated diseases” (MD VAULT LLC, priority 2020, dated 2026).

Legend:
2-year-old aged mice = experiment: Senescence biomarkers in tissues of aged mice; assay type: in vivo; details: aged liver, muscle and skin tissues; ip 20 mg/kg X and/or 4 mg/kg Y daily for 30 days; vs DMSO vehicle; P<0.01
Protocol: To test if the drugs X and Y may reduce senescence in the tissues of aged mice, we intraperitoneally injected 2-year-old aged mice (n=10/group) with 20 mg/kg of X, or 4 mg/kg of Y, or both 20 mg/kg of X and 4 mg/kg of Y, relative to the DMSO vehicle control, on a daily basis for 30 days. Staining of liver, muscle and skin tissue sections for SA-β-gal activity was performed using the Senescence β-Galactosidase Staining Kit (Cell Signaling Technology) according to manufacturer's protocols. Protein expression of p16INK4A and H3K9me3 were evaluated by densitometric quantification of Westem blots of the liver, muscle and skin tissue samples.

[1] = tested on: primary human skeletal muscle cells; experiment: Metabolism and gene pathway profiling of muscle cells; assay type: cell-based; details: single agent: X alone 100 mg/L or Y alone 2 mg/L
Protocol: Calorie restriction is known to ameliorate the effects of aging, by altering cellular bioenergetic stress and promoting mitochondrial activity, the unfolded protein response (UPR), the secretion of beneficial cytokines, and an increase in stem cell regeneration. To test how the drug combination X and Y mimics the effects of calorie restriction (CR), we profiled the metabolism of primary human skeletal muscle cells at passage 15 treated with X (100 mg/L) and Y (2 mg/L), compared to X alone (100 mg/L) or Y alone (2 mg/L).

[2] = tested on: adult female rats (PCOS model); experiment: Estrus cycles in DHEA/diet PCOS rat model; assay type: in vivo; details: daily oral gavage over 6 weeks; DHEA 60 mg/kg sc and high fat-high sugar-high cholesterol diet
Protocol: Daily oral gavage of the drug combination X and Y, relative to X alone or Y alone or the vehicle over 6 weeks, led to restoration of estrus cycles in adult female rats treated with subcutaneous dehydroepiandrosterone (DHEA; 60 mg/kg body weight) and fed with a high fat-high sugar-high cholesterol diet ad libitum to model premature ovarian aging in polycystic ovary syndrome (PCOS).

[3] = tested on: 1 year-old aged mice treated with intratracheal bleomycin; experiment: Bleomycin lung fibrosis in aged mice (COPD/IPF model); assay type: in vivo; details: daily oral gavage over 3 weeks; intratracheal bleomycin 3 mg/kg
Protocol: Daily oral gavage of the drug combination X and Y, relative to X alone or Y alone or the vehicle over 3 weeks, led to decreases in aging-associated lung fibrosis in 1 year-old aged mice treated with intratracheal bleomycin (3 mg/kg in 50 ul phosphate buffered saline or PBS) to model chronic obstructive pulmonary disease (COPD) and idiopathic pulmonary fibrosis (IPF).

[4] = tested on: 1 year-old aged diabetic mice; experiment: Tissue regeneration in 1 year-old aged diabetic mice, oral gavage; assay type: in vivo; details: single agent: X alone 20 mg/kg or Y alone 4 mg/kg, daily oral gavage, 6 weeks

CC(=O)Oc1ccccc1C(=O)O [X, 2-acetoxybenzoic acid]
SA-β-gal activity staining (senescence biomarker) (2-year-old aged mice): but not X alone or Y alone | beneficial anti-aging effects seen with X and Y (ATP, acetyl-CoA, acetylation, Pink1, mitochondrial protein and DNA, UPR, ROS, cytokine and stem cell pathways) [1]: None of these beneficial anti-aging effects were observed | estrus cycles (vaginal smear analysis) [2]: all of the rats were frozen in either the estrus or proestrus stages | lung fibrosis (% fibrotic area, Masson trichrome staining, ImageJ) [3]: None of these beneficial anti-aging effects were observed | beneficial anti-aging effects seen with X and Y (liver, β islet, hair, wound, muscle regeneration, body mass) [4]: None of these beneficial anti-aging effects were observed

COc1ccc(CN2CCNCC2)c(OC)c1OC [Y, 1-[(2,3,4-trimethoxyphenyl)methyl]piperazine]
SA-β-gal activity staining (senescence biomarker) (2-year-old aged mice): but not X alone or Y alone | beneficial anti-aging effects seen with X and Y (ATP, acetyl-CoA, acetylation, Pink1, mitochondrial protein and DNA, UPR, ROS, cytokine and stem cell pathways) [1]: None of these beneficial anti-aging effects were observed | estrus cycles (vaginal smear analysis) [2]: all of the rats were frozen in either the estrus or proestrus stages | lung fibrosis (% fibrotic area, Masson trichrome staining, ImageJ) [3]: None of these beneficial anti-aging effects were observed | beneficial anti-aging effects seen with X and Y (liver, β islet, hair, wound, muscle regeneration, body mass) [4]: None of these beneficial anti-aging effects were observed
